Results on eight molecules are retold here after PubChem BioAssay AID652005 (Sanford-Burnham Center for Chemical Genomics, 2013).

Activity calls are given as the source filed them. How the calls were made is not given here.

Low molecular weight phosphotyrosine protein phosphatase (Homo sapiens), sequence (P24666 whole entry, looked up): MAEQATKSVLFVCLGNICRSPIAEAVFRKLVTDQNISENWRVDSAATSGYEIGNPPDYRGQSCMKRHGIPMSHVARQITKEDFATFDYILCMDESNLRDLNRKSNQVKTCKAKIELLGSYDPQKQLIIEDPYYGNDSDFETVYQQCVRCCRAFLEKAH

The assay concerns the target Low molecular weight phosphotyrosine protein phosphatase (Homo sapiens) (UniProt P24666). Kind of assay: inhibition of human LMPTP enzyme activity – biochemical, absorbance, orthogonal assay, dose response (AID 652005). The following applies: recombinant LMPTP, absorbance-based phosphatase activity.
The IC50 is the concentration that inhibits the measured activity by half. As for `O=c1[nH]c2ccccc2n1C1CCN(Cc2ccc(-c3[nH]c4cc5ncnc5cc4nc3-c3ccccc3)cc2)CC1`, the IC50 is > 80 µM (inactive).
The result for `CCc1ccc(C=C2SC(=S)N(CCCC(=O)Nc3ccc(C(=O)O)cc3)C2=O)cc1` reads > 80 µM (inactive).
The result for `O=C(NCc1ccc2c(c1)OCO2)c1c(O)nc2sccn2c1=O` reads > 80 µM (inactive); that for `Cc1csc2nc(O)c(C(=O)NCc3ccc4c(c3)OCO4)c(=O)n12`, > 80 µM (inactive).
The result for `O=C(N=Nc1c(O)[nH]c2ccc(F)cc12)c1ccc(NS(=O)(=O)c2cccs2)cc1` reads > 80 µM (inactive); that for `O=C(/C=C/c1ccc(Cl)cc1)NC(=S)Nc1ccc(C(=O)O)cc1`, 15 µM; that for `CCN(c1ccccc1)S(=O)(=O)c1cc(C(=O)O)ccc1C`, “inactive”.
`CC(C1SC(=S)NC1=O)C1SC(=S)NC1=O` (stereo not drawn): the IC50 was > 80 µM (inactive).
